Test system: TFEB
Assay: TFEB nuclear translocation assay, HeLa wt cells
Assay type: cell-based
Details: 2 hrs compound treatment, Table 1 does not say HeLa wt or TRPML1 KO
How it was run: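 HeLa wt or TRPML1 KO cells treated 2 hrs with compounds at 37° C, fixed in 4% PFA, immunostained with anti-TFEB plus Alexa 488 secondary and Hoechst. Imaged at ×20, four fields/well; read-out is nuclear/perinuclear-ring TFEB intensity ratio, reported as AC50.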

Structure (SMILES)	AC50 (Homo sapiens, HeLa, 2 h) [µM]	AC50 [µM]
Cc1nc(C2CC2)sc1S(=O)(=O)Nc1ccccc1N1CCC(CN2C[C@@H](C)O[C@@H](C)C2)CC1 [Compound A-768, 2-cyclopropyl-N-[2-(4-{[(2R,6S)-2,6-dimethylmorpholin-4-yl]methyl}piperidin-1-yl)phenyl]-4-methyl-1,3-thiazole-5-sulfonamide]	≤ 2	–
CN(C)S(=O)(=O)c1ccc(S(=O)(=O)Nc2ccccc2N2CCN(c3ccc(Cl)cc3F)CC2=O)cc1 [Compound A-283, N4-{2-[4-(4-chloro-2-fluorophenyl)-2-oxopiperazin-1-yl]phenyl}-N1,N1-dimethylbenzene-1,4-disulfonamide]	≥ 10	–
Cc1ccc(N2CCOCC2)c(NS(=O)(=O)c2ccc3c(c2)CCC3)c1 [Compound A-520, N-[5-methyl-2-(morpholin-4-yl)phenyl]-2,3-dihydro-1H-indene-5-sulfonamide]	≤ 2	–
COC(=O)C(C)(C)c1ccc(S(=O)(=O)Nc2ccccc2N2CCC3(CC2)COC(C)(C)C3)cc1 [Compound A-710, methyl 2-{4-[(2-{3,3-dimethyl-2-oxa-8-azaspiro[4.5]decan-8-yl}phenyl)sulfamoyl]phenyl}-2-methylpropanoate]	8.01 to 9.99	–
Cc1ccc(S(=O)(=O)n2cc3c(N4CCN(C5CCCCC5)CC4)cccc3n2)cc1 [Compound A-561]	2.01 to 8	–
CC(C1CCN(c2c(F)cccc2NS(=O)(=O)c2ccc(S(=N)(=O)N(C)C)cc2)CC1)N1C[C@@H](C)O[C@@H](C)C1 (single isomer, unassigned) [Compound A-871A]	–	≤ 2
CS(=O)(=O)c1ccc(S(=O)(=O)Nc2ccccc2N2CCC3(CC2)COCc2ccccc23)cc1 [Compound A-481, N-(2-{1,3-dihydrospiro[2-benzopyran-4,4′-piperidin]-1′-yl}phenyl)-4-methanesulfonylbenzene-1-sulfonamide]	≤ 2	–
CC(C)(C)C(=O)N1CCN(c2ccccc2NS(=O)(=O)Cc2cccc(Br)c2)CC1 [Compound A-485, 1-(3-bromophenyl)-N-{2-[4-(2,2-dimethylpropanoyl)piperazin-1-yl]phenyl}methanesulfonamide]	2.01 to 8	–
CCC(C)c1ccc(S(=O)(=O)Nc2ccccc2N2CCN(C(=O)C(C)(C)C)CC2)cc1 (stereo not shown) [Compound A-513, 4-(butan-2-yl)-N-{2-[4-(2,2-dimethylpropanoyl)piperazin-1-yl]phenyl}benzene-1-sulfonamide]	2.01 to 8	–
COCC1(C)CCN(c2ccccc2NS(=O)(=O)c2ccc(Cl)cc2)CC1 [Compound A-577, 4-chloro-N-{2-[4-(methoxymethyl)-4-methylpiperidin-1-yl]phenyl}benzene-1-sulfonamide]	2.01 to 8	–
CN(C)S(=O)(=O)c1ccc(S(=O)(=O)N(C)c2ccc(F)cc2N2CCC3(CC2)COC(C)(C)C3)cc1 [Compound A-729, N1-(2-{3,3-dimethyl-2-oxa-8-azaspiro[4.5]decan-8-yl}-4-fluorophenyl)-N1,N4,N4-trimethylbenzene-1,4-disulfonamide]	2.01 to 8	–
CC(c1cccnc1N1CCC(CN2CCC(F)(F)CC2)CC1)S(=O)(=O)c1ccc(S(=O)(=O)N(C)C)cc1 (stereo not shown) [Compound A-987, 4-[1-(2-{4-[(4,4-difluoropiperidin-1-yl)methyl]piperidin-1-yl}pyridin-3-yl)ethanesulfonyl]-N,N-dimethylbenzene-1-sulfonamide]	≤ 2	–
COC1(C)CCN(c2ccccc2NS(=O)(=O)c2ccc(S(=O)(=O)N(C)C)cc2)CC1 [Compound A-454, N4-[2-(4-methoxy-4-methylpiperidin-1-yl)phenyl]-N1,N1-dimethylbenzene-1,4-disulfonamide]	≤ 2	–
COc1ccc(S(=O)(=O)Nc2ccccc2N(C)c2ccc(F)cc2F)cc1 [Compound A-199, N-{2-[(2,4-difluorophenyl)(methyl)amino]phenyl}-4-methoxybenzene-1-sulfonamide]	≥ 10	–
CC(c1cccc(F)c1N1CCC(CN2C3CCC2COC3)CC1)S(=O)(=O)c1ccc(S(=O)(=O)N(C)C)cc1 (stereo not shown) [Compound A-832, 4-((1-(2-(4-((3-oxa-8-azabicyclo[3.2.1]octan-8-yl)methyl)piperidin-1-yl)-3-fluorophenyl)ethyl)sulfonyl)-N,N-dimethylbenzenesulfonamide]	≤ 2	–
CN(C)S(=O)(=O)c1ccc(S(=O)(=O)Nc2ccccc2N2CCC(c3cccc(F)c3C(=O)O)CC2)cc1 [Compound A-358, 2-(1-{2-[4-(dimethylsulfamoyl)benzenesulfonamido]phenyl}piperidin-4-yl)-6-fluorobenzoic acid]	≥ 10	–
CC(c1cccc(F)c1N1CCC(CN2C3COCC2C3)CC1)S(=O)(=O)c1ccc(S(=O)(=O)N(C)C)cc1 (stereo not shown) [Compound A-870, 4-((1-(2-(4-((3-oxa-6-azabicyclo[3.1.1]heptan-6-yl)methyl)piperidin-1-yl)-3-fluorophenyl)ethyl)sulfonyl)-N,N-dimethylbenzenesulfonamideformate]	–	≥ 10

Structure (SMILES)	AC50 (Homo sapiens, HeLa, 2 h) [µM]	AC50 [µM]
CN(C)S(=O)(=O)c1ccc(S(=O)(=O)Nc2ccccc2N2CCC(COCC(F)F)CC2)cc1 [Compound A-730, N4-(2-{4-[(2,2-difluoroethoxy)methyl]piperidin-1-yl}phenyl)-N1,N1-dimethylbenzene-1,4-disulfonamide]	≤ 2	–
CN(C)S(=O)(=O)c1ccc(S(=O)(=O)Nc2cccc(N3CCC(c4ccc(Cl)cc4F)CC3)n2)cc1 [Compound A-134, N4-{6-[4-(4-chloro-2-fluorophenyl)piperidin-1-yl]pyridin-2-yl}-N1,N1-dimethylbenzene-1,4-disulfonamide]	≥ 10	–
CN(C)S(=N)(=O)c1ccc(S(=O)(=O)Nc2cccc(F)c2N2CCC(CN3CC4CCC(C3)O4)CC2)cc1 (stereo not shown) [Compound A-853, N-(2-(4-((8-oxa-3-azabicyclo[3.2.1]octan-3-yl)methyl)piperidin-1-yl)-3-fluorophenyl)-4-(N,N-dimethylsulfamidimidoyl)benzenesulfonamide]	–	≤ 2
CN(C)S(=O)(=O)c1ccc(C(Nc2cc(Cl)ccc2N2CCOCC2)C(F)(F)F)cc1 (stereo not shown) [Compound A-356, 4-(1-{[5-chloro-2-(morpholin-4-yl)phenyl]amino}-2,2,2-trifluoroethyl)-N,N-dimethylbenzene-1-sulfonamide]	2.01 to 8	–
CN(C)S(=O)(=O)c1ccc(S(=O)(=O)Nc2ccccc2N2CCC(c3ccc(Cl)cc3)CC2)cc1 [Compound A-47, N4-{2-[4-(4-chlorophenyl)piperidin-1-yl]phenyl}-N1,N1-dimethylbenzene-1,4-disulfonamide]	≤ 2	–
COC(F)(F)C(F)(F)c1ccc(S(=O)(=O)Nc2ccccc2N2CCN(C(=O)C(C)(C)C)CC2)cc1 [Compound A-569, N-{2-[4-(2,2-dimethylpropanoyl)piperazin-1-yl]phenyl}-4-(1,1,2,2-tetrafluoro-2-methoxyethyl)benzene-1-sulfonamide]	8.01 to 9.99	–
CS(=O)(=O)c1ccc(S(=O)(=O)Nc2ccccc2N2CCC3(CC2)CN(C(=O)OC2CCOC2)c2cc(F)ccc23)cc1 (stereo not shown) [Compound A-469, oxolan-3-yl 6-fluoro-1′-[2-(4-methanesulfonylbenzenesulfonamido)phenyl]-1,2-dihydrospiro[indole-3,4′-piperidine]-1-carboxylate]	≤ 2	–
CN(C)S(=O)(=O)c1ccc(S(=O)(=O)Nc2ccccc2N2CCN(C3CC3)CC2)cc1 [Compound A-52, N4-[2-(4-cyclopropylpiperazin-1-yl)phenyl]-N1,N1-dimethylbenzene-1,4-disulfonamide]	≤ 2	–
O=S(=O)(Nc1cc(Cl)ccc1N1CCCC12CCCOC2)c1ccc2c(c1)CCC2 (stereo not shown) [Compound A-405, N-(5-chloro-2-{7-oxa-1-azaspiro[4.5]decan-1-yl}phenyl)-2,3-dihydro-1H-indene-5-sulfonamide]	2.01 to 8	–
O=S(=O)(Nc1ccccc1N1CCC(c2ccc(Cl)cc2F)CC1)c1ccc(F)cc1 [Compound A-74, N-{2-[4-(4-chloro-2-fluorophenyl)piperidin-1-yl]phenyl}-4-fluorobenzene-1-sulfonamide]	2.01 to 8	–
Cc1ccc(CS(=O)(=O)Nc2ccccc2N2CCC3(CC2)COC(C)(C)C3)cc1 [Compound A-711, N-(2-{3,3-dimethyl-2-oxa-8-azaspiro[4.5]decan-8-yl}phenyl)-1-(4-methylphenyl)methanesulfonamide]	≤ 2	–
CC(C)(C)C(=O)N1CCN(c2ccccc2NS(=O)(=O)c2ccc(C(C)(F)F)cc2)CC1 [Compound A-590, 4-(1,1-difluoroethyl)-N-{2-[4-(2,2-dimethylpropanoyl)piperazin-1-yl]phenyl}benzene-1-sulfonamide]	2.01 to 8	–
O=S(=O)(Cc1ccc(F)c(Cl)c1)Nc1cccc(Cl)c1N1CCOCC1 [Compound A-368, N-[3-chloro-2-(morpholin-4-yl)phenyl]-1-(3-chloro-4-fluorophenyl)methanesulfonamide]	2.01 to 8	–
O=S(=O)(Nc1cccc(Cl)c1N1CCOCC1)c1ccc(S(=O)(=O)C(F)F)cc1 [Compound A-274, N-[3-chloro-2-(morpholin-4-yl)phenyl]-4-difluoromethanesulfonylbenzene-1-sulfonamide]	≥ 10	–
CN(C)S(=O)(=O)c1ccc(S(=O)(=O)Nc2ccccc2N2CCN(c3ccc(Cl)cc3F)CC2)cc1 [Compound A-12, N4-{2-[4-(4-chloro-2-fluorophenyl)piperazin-1-yl]phenyl}-N1,N1-dimethylbenzene-1,4-disulfonamide]	≤ 2	–
Cc1ccc(S(=O)(=O)Nc2ccccc2N2CCC(c3ccc(Cl)cn3)CC2)cc1 [Compound A-103, N-{2-[4-(5-chloropyridin-2-yl)piperidin-1-yl]phenyl}-4-methylbenzene-1-sulfonamide]	≤ 2	–
COCC1(C)CCN(c2ccccc2NS(=O)(=O)c2cccc(C3CC3(F)F)c2)CC1 (stereo not shown) [Compound A-651, 3-(2,2-difluorocyclopropyl)-N-{2-[4-(methoxymethyl)-4-methylpiperidin-1-yl]phenyl}benzene-1-sulfonamide]	≤ 2	–

Reference: US20230104936A1, “TRPML MODULATORS” (Casma Therapeutics, Inc., priority 2019, published 2023)
